Measured values published in the supplement of paper PMC10307832.

Experiments:
Assay in all cases: relative viability (nuclei count vs DMSO), 5 days (fraction); higher = more cells survive
[1] = compound: CCn1c(-c2nonc2N)nc2cnc(Oc3cccc(NC(=O)c4ccc(OCCN5CCOCC5)cc4)c3)cc21 + COc1cccc2cc(-c3nc([C@H]4CC[C@H](C(=O)O)CC4)n4ncnc(N)c34)[nH]c12 [OSI-027] (partner 0.5 µM)
How it was run: (§1)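 Nuclei were stained with Hoechst during a one-step fixation (final 0.05% Triton X-100, 1% formaldehyde, 1 ug/ml Hoechst) carried out 5 days after dosing, then counted on 4× images. The cells, lung cancer lines in 1536-well plates, had been dosed by pin tool the day after seeding with one drug alone or a fixed anchor-drug dose plus five library-drug doses (not always all listed) in √10 steps. Relative viability is the nuclei count in treated wells divided by that in vehicle wells, and each value is the median of duplicate plates.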

Mirin + Olaparib = compound: N=C1NC(=O)/C(=C/c2ccc(O)cc2)S1 [Mirin] + O=C(c1cc(Cc2n[nH]c(=O)c3ccccc23)ccc1F)N1CCN(C(=O)C2CC2)CC1 [Olaparib] (partner 8 µM)
How it was run: as §1

[2] = compound: CCC1=CN=CN=C1N2CCN(CC2)CC3=NC4=C(N3)C=C(C=C4)C(F)(F)F + Nc1ncn([C@H]2C[C@H](O)[C@@H](CO)O2)c(=O)n1 [Decitabine] (partner 2 µM)
How it was run: as §1

[3] = compound: CCn1c(-c2nonc2N)nc2cnc(Oc3cccc(NC(=O)c4ccc(OCCN5CCOCC5)cc4)c3)cc21 + CC(=O)c1c(C)c2cnc(Nc3ccc(N4CCNCC4)cn3)nc2n(C2CCCC2)c1=O [Palbociclib] (partner 0.5 µM)
How it was run: as §1

UMC-11
relative viability ([1]; first compound 0.04 µM): 0.44 | relative viability ([1]; first compound 0.1265 µM): 0.41 | relative viability ([1]; first compound 0.4 µM): 0.355 | relative viability ([1]; first compound 1.265 µM): 0.208 | relative viability ([1]; first compound 4 µM): 0.179 | relative viability (Mirin + Olaparib; first compound 0.25 µM): 0.382 | relative viability (Mirin + Olaparib; first compound 0.7906 µM): 0.316 | relative viability (Mirin + Olaparib; first compound 2.5 µM): 0.332 | relative viability (Mirin + Olaparib; first compound 7.906 µM): 0.279 | relative viability (Mirin + Olaparib; first compound 25 µM): 0.331 | relative viability ([2]; first compound 0.04 µM): 0.622 | relative viability ([2]; first compound 0.1265 µM): 0.562 | relative viability ([2]; first compound 0.4 µM): 0.602 | relative viability ([2]; first compound 1.265 µM): 0.379 | relative viability ([2]; first compound 4 µM): 0.351 | relative viability ([3]; first compound 0.04 µM): 0.277 | relative viability ([3]; first compound 0.1265 µM): 0.379 | relative viability ([3]; first compound 0.4 µM): 0.269 | relative viability ([3]; first compound 1.265 µM): 0.151 | relative viability ([3]; first compound 4 µM): 0.248
